Laboratory results taken from article PMC6142817, “New Urea Derivatives Are Effective Anti-senescence Compounds Acting Most Likely via a Cytokinin-Independent Mechanism” (Frontiers in Plant Science, 2018).
Where two headings read alike, the source gives them in different places.

Key:
[1] = tested on: detached wheat leaves (ethylene production); experiment: Ethylene accumulation assay; type: cell-based, Triticum aestivum; conditions: 10 μM, sealed vials; for ethylene production, fold of the control: days 3–6, dark; for ethylene production, fold of untreated leaves: first 3 days, dark
Description: Two detached leaf tips (final weight 50 mg) from 7-day-old wheat plants were incubated in 10 mL gas chromatography vials with either 1 mL of 0.1% DMSO (control), 10 μM ASES or 10 μM TDZ, and kept in the dark for 6 days at 25°C (1 day longer than the classical WLSA). On the third day, 1 mL of air from each vial was collected and the vials were then left open for 1 h and aerated with fresh air. Another 1 mL of air was collected from each vial on the sixth day. The amount of ethylene in each sample was determined using gas chromatography and the flame ionization detector method described by Fišerová et al. ([2001]).

[2] = tested on: cytokinin-dependent tobacco callus; experiment: Tobacco callus bioassay; type: cell-based; conditions: for EC50: Nicotiana tabacum
Description: Tobacco callus, Amaranthus and Wheat leaf senescence assay (WLSA) were performed as described by Holub et al. ([1998]) including the number of repetitions in each assay. An exception to the published protocols was that the tobacco callus assay was performed in 6-well microtiter plates (with each well containing 3 ml of Murashige Skoog medium into which 0.1 g of callus was added). Each compound was tested at least twice in each assay and in a wider concentration range to obtain concentration-dependent activity curves. IC50 means compound concentration at which chlorophyll degradation is inhibited by 50% and EC50 means half the maximal effective concentration.

[3] = tested on: detached Arabidopsis leaves (chlorophyll loss in the dark); experiment: Arabidopsis leaf senescence assay; type: cell-based, Arabidopsis thaliana; conditions: for % of the chlorophyll retained: 0.01 μM; for % of the chlorophyll retained / % more of chlorophyll retained than DMSO (negative control): 12 days in the dark; for % more of chlorophyll retained than DMSO (negative control): 1 μM; for times more effective than BA in Arabidopsis leaf senescence assay: compared to the activity of BA in 1 μM
Source text: Amaranthus assay evaluates the induction of betacyanin synthesis in Amaranthus (Amaranthus caudatus var. atropurpurea) cotyledons, which is induced by cytokinins (Bamberger and Mayer, [1960]). The WLSA evaluates the ability of compounds to retard chlorophyll degradation in excised wheat leaves that are kept in the dark. The wheat leaf segments (Triticum aestivum cv. Hereward) were used in all other experiments requiring wheat. Arabidopsis (Arabidopsis thaliana) leaf senescence assay was performed with detached leaves from 30-day-old plants, which were grown in soil in phytotron under standard conditions (Rivero et al., [2014]). Four leaves of a combined weight of 60 mg were placed in a six-well plate and stored in the dark for 12 days at 22°C. The leaves (except the fresh control leaves) floated on water solutions of tested compounds. Fresh control leaves were leaves detached from a plant and immediately used for chlorophyll determination. The duration of the senescence assay of Arabidopsis leaves was prolonged to highlight the difference in chlorophyll content between a negative control and treatments. Arabidopsis leaves were losing chlorophyll more slowly than wheat leaves. Chlorophyll extraction and spectrophotometric determination of its content was done according to Holub et al. ([1998]).

[4] = tested on: Arabidopsis thaliana roots; experiment: Arabidopsis root elongation assay; type: in vivo, Arabidopsis thaliana (wild-type Col-0); conditions: 0.1 μM, 14 days; for Arabidopsis root growth (length): control 3.5 cm
Description: (§1) Seeds of Triticum aestivum were surface sterilized by washing with 96% ethanol (10 min) and sown in a hydroponic growing system (Araponics, Liege, Belgium) using Hoagland's solution supplemented with either 0.1 μM TDZ, 0.1 μM ASES or 0.01% DMSO (solvent control). The plants were grown in a growth chamber at 25°C with a 16/8 h light period at 130 μM m^−2s^−1. The root lengths of at least 50 plants were measured 2 weeks after the plants had been sown. Seeds of Arabidopsis thaliana (wild-type Col-0) were surface sterilized by the same procedure as seeds of wheat and sown on vertical plates using half-strength Murashige-Skoog medium (supplemented with 0.1% sucrose and 6 g/L phytagel) containing either 0.1 μM TDZ, 0.1 μM ASES or 0.01% DMSO (solvent control). After vernalization (4 days in the dark, 4°C), the plates were transferred into a growth chamber (22°C, 16/8 light/dark, 130 μM m^−2s^−1). Root elongation was scored 2 weeks after the transfer, with measurements from at least 40 plants for each treatment. The whole experiment was repeated twice.

Triticum aestivum roots = experiment: Wheat root elongation assay; type: in vivo; conditions: 0.1 μM, 14-day-old plants; control 10.4 cm
Description: as §1

ARR5:GUS reporter gene = experiment: Arabidopsis ARR5:GUS reporter gene assay; type: in vivo, Arabidopsis thaliana
Description: Transgenic Arabidopsis plants (Arabidopsis thaliana (L.) Heynh. accession Wassilewskija) harboring the GUS reporter gene (gene for β-glucuronidase) fused to 1.6 kb of the ARR5 (PARR5−GUS) gene promoter (D'Agostino et al., [2000]) were kindly provided by professor Thomas Schmülling. The assay was performed according to Romanov et al. ([2002]). β-Glucuronidase (GUS) activity was quantitatively determined by measuring fluorescence of 4-methylumbelliferyl (MU) on a Synergy H4 hybrid reader (Biotek, Winooski, VT) with excitation and emission wavelengths of 365 and 445 nm, respectively. GUS specific activity was determined as nmol MU × mg protein^−1 × h^−1. This was calculated by dividing the relative fluorescence units (obtained per hour) by protein content of the same sample. Protein extraction was done as described by Romanov et al. ([2002]) but its content was determined using a bicinchoninic acid reagent (Smith et al., [1985]). Finally we expressed the GUS activity in samples as a relative percentage, the activity of 1 μM BA being set as 100% activation. The concentration-dependent activity curves and EC50 values (for TDZ, tZ, BA, TD-iP, and TD-tZ) were constructed using Scion image program.

[5] = tested on: photosystem II complexes in wheat leaves from WLSA; experiment: Two-dimensional clear-native/SDS electrophoresis of membrane complexes; set-up: species or system Triticum aestivum; conditions: 10 μM, 5 days in the dark
Description: Leaves from WLSA were frozen at −80°C and then dried overnight by lyophilization at 5°C. Dried material was homogenized by bead-beating (2 × 10 s) with 2.5 mm metal beads (Mini-Beadbeater-16, BioSpec, USA). The resulting powder was mixed with a thylakoid buffer, pH 6.5, containing 25 mM MES, 10 mM MgCl2, 10 mM CaCl2, and 25% glycerol and bead-beaten (4 × 10 s). The obtained cell extract was centrifuged, after which the insoluble fraction was transferred into a new tube and solubilized with 2% dodecyl-β-maltoside for 15 min on ice. The solution was centrifuged at 30,000 × g for 10 min to remove any non-solubilized cell debris and the obtained solubilized membrane proteins were separated by electrophoresis using a 4 to 12% polyacrylamide clear native gel (Wittig et al., [2007]). Individual components of protein complexes were resolved by incubating the gel strip from the first electrophoresis in 2% SDS and 1% dithiothreitol for 30 min at room temperature, after which the proteins were separated in a second dimension by SDS-electrophoresis using a denaturing 12 to 20% polyacrylamide gel containing 7 M urea (Dobáková et al., [2009]). Proteins were stained with Coomassie Brilliant Blue, and individual protein components were identified by comparing the protein pattern with previously published results (Pagliano et al., [2012]).

Row | Structure (SMILES) | ethylene production, fold of the control [1] | ethylene production, fold of untreated leaves [1] | cell division stimulatory effect, times lower than that of TDZ [2] | EC50 ([2]; half the maximal effective concentration, N.A. = not active, read-out: Tobacco callus bioassay (EC50)) | Tobacco callus bioassay (EC50, μM) ([2]; half the maximal effective concentration, N.A. = not active) | % of the chlorophyll retained [3] | % more of chlorophyll retained than DMSO (negative control) [3] | times more effective than BA in Arabidopsis leaf senescence assay [3] | Arabidopsis root growth (length) [4] | wheat root length (Triticum aestivum roots) | ARR5:GUS activity, % of BA activity (ARR5:GUS reporter gene; compound at 10 μM, 1 μM BA = 100%) | level of PSII-LHCII supercomplexes [5] | membrane complexes / level of dimeric PSII in senescent leaves [5] | EC50 ([2]; read-out: Tobacco callus bioassay (EC50, μM)) | reduction of Arabidopsis root growth compared to the control [4] | EC50 (ARR5:GUS reporter gene; Arabidopsis thaliana, read-out: ARR5:GUS activation EC50)
1 | COCCNC(=O)Nc1cnns1 [ASES, 1-(2-methoxy-ethyl)-3-1,2,3-thiadiazol-5-yl-urea] | 1.22 fold | 1.36 fold | more than 700 times | 0.68 µM | sub-micromolar range | more than 55% | 96% | approximately 100 times | 4.2 cm | 11.0 cm | 55–65% | even higher level of PSII-LHCII supercomplexes than we observed for fresh control | very similar to those of the fresh control, including high levels of dimeric PSII | – | – | –
2 | O=C(Nc1ccccc1)Nc1cnns1 [TDZ, 1-phenyl-3-(1,2,3-thiadiazol-5-yl)urea, reference compound] | 2.18 fold | 2.02 fold | – | – | – | more than 55% | 85% | approximately 100 times | 1.7 cm | 3.2 cm | – | completely lost | – | 0.001 µM | 50% | 4 nM
